How the values were obtained:
Type in all cases: functional
CCRF-CEM = assay: Cytotoxicity against Homo sapiens (human) CCRF-CEM cells after 48 hr by sulforhodamine B assay; conditions: for CC50: read-out: LC50 (the source's name)
786-0 = assay: Cytotoxicity against Homo sapiens (human) 786-0 cells after 48 hr by sulforhodamine B assay; conditions: 786-0, 48 h
NCI-H522 = assay: Cytotoxicity against Homo sapiens (human) NCI-H522 cells after 48 hr by sulforhodamine B assay; conditions: NCI-H522, 48 h; for CC50: read-out: LC50 (the source's name)
ACHN = assay: Cytotoxicity against Homo sapiens (human) ACHN cells after 48 hr by sulforhodamine B assay; conditions: for CC50: read-out: LC50 (the source's name)
MDA-MB-435 = assay: Cytotoxicity against Homo sapiens (human) MDA-MB-435 cells after 48 hr by sulforhodamine B assay; conditions: MDA-MB-435, 48 h
RXF 393 = assay: Cytotoxicity against Homo sapiens (human) RXF393 cells after 48 hr by sulforhodamine B assay; conditions: RXF 393, 48 h; for CC50: read-out: LC50 (the source's name)
T47D = assay: Cytotoxicity against Homo sapiens (human) T47D cells after 48 hr by sulforhodamine B assay
SF-268 [1] = assay: Cytotoxicity against Homo sapiens (human) SF268 cells assessed as cell growth at 10^-4 M after 48 hr by […] assay; conditions: SF-268, 48 h, read-out: Activity
U-251 = assay: Cytotoxicity against Homo sapiens (human) U251 cells after 48 hr by sulforhodamine B assay; conditions: U-251, 48 h
MDA-MB-231 = assay: Cytotoxicity against Homo sapiens (human) MDA-MB-231 cells after 48 hr by sulforhodamine B assay; conditions: MDA-MB-231, 48 h
COLO 205 = assay: Cytotoxicity against Homo sapiens (human) COLO205 cells after 48 hr by sulforhodamine B assay; conditions: COLO 205, 48 h; for CC50: read-out: LC50 (the source's name)
SF-268 [2] = assay: Cytotoxicity against Homo sapiens (human) SF268 cells after 48 hr by sulforhodamine B assay; conditions: SF-268, 48 h; for CC50: read-out: LC50 (the source's name)
MOLT-4 = assay: Cytotoxicity against Homo sapiens (human) MOLT4 cells after 48 hr by sulforhodamine B assay; conditions: MOLT-4, 48 h; for CC50: read-out: LC50 (the source's name)
HCT-15 = assay: Cytotoxicity against Homo sapiens (human) HCT15 cells after 48 hr by sulforhodamine B assay; conditions: HCT-15, 48 h; for CC50: read-out: LC50 (the source's name)
NCI-H460 [3] = assay: Cytotoxicity against Homo sapiens (human) NCI-H460 cells assessed as cell growth at 10^-4 M after 48 hr by Alamar blue assay; conditions: NCI-H460, 48 h, read-out: Activity
NCI-H322M = assay: Cytotoxicity against Homo sapiens (human) NCI-H322M cells after 48 hr by sulforhodamine B assay; conditions: for CC50: read-out: LC50 (the source's name)
SK-OV-3 = assay: Cytotoxicity against Homo sapiens (human) SKOV3 cells after 48 hr by sulforhodamine B assay; conditions: SK-OV-3, 48 h
BT-549 = assay: Cytotoxicity against Homo sapiens (human) BT549 cells after 48 hr by sulforhodamine B assay; conditions: BT-549, 48 h
HOP-92 = assay: Cytotoxicity against Homo sapiens (human) HOP92 cells after 48 hr by sulforhodamine B assay; conditions: HOP-92, 48 h; for CC50: read-out: LC50 (the source's name)
UACC-62 = assay: Cytotoxicity against Homo sapiens (human) UACC62 cells after 48 hr by sulforhodamine B assay; conditions: UACC-62, 48 h
MCF7 = assay: Cytotoxicity against Homo sapiens (human) MCF7 cells after 48 hr by sulforhodamine B assay; conditions: MCF7, 48 h
NCI-H460 [4] = assay: Cytotoxicity against Homo sapiens (human) NCI-H460 cells after 48 hr by sulforhodamine B assay; conditions: NCI-H460, 48 h; for CC50: read-out: LC50 (the source's name)
SK-MEL-28 = assay: Cytotoxicity against Homo sapiens (human) SK-MEL-28 cells after 48 hr by sulforhodamine B assay; conditions: SK-MEL-28, 48 h
Hs-578T = assay: Cytotoxicity against Homo sapiens (human) Hs 578T cells after 48 hr by sulforhodamine B assay
NCI-H226 = assay: Cytotoxicity against Homo sapiens (human) NCI-H226 cells after 48 hr by sulforhodamine B assay; conditions: NCI-H226, 48 h; for CC50: read-out: LC50 (the source's name)
SN12C = assay: Cytotoxicity against Homo sapiens (human) SN12C cells after 48 hr by sulforhodamine B assay
PC-3 = assay: Cytotoxicity against Homo sapiens (human) PC3 cells after 48 hr by sulforhodamine B assay; conditions: PC-3, 48 h
UO-31 = assay: Cytotoxicity against Homo sapiens (human) UO31 cells after 48 hr by sulforhodamine B assay; conditions: UO-31, 48 h
NCI-H23 = assay: Cytotoxicity against Homo sapiens (human) NCI-H23 cells after 48 hr by sulforhodamine B assay; conditions: NCI-H23, 48 h; for CC50: read-out: LC50 (the source's name)
[5] = Cytotoxicity against Homo sapiens (human) NCI-ADR-RES cells after 48 hr by sulforhodamine B assay
HOP-62 = assay: Cytotoxicity against Homo sapiens (human) HOP62 cells after 48 hr by sulforhodamine B assay; conditions: HOP-62, 48 h; for CC50: read-out: LC50 (the source's name)
KM12 = assay: Cytotoxicity against Homo sapiens (human) KM12 cells after 48 hr by sulforhodamine B assay; conditions: KM12, 48 h; for CC50: read-out: LC50 (the source's name)

SMILES: Nc1nc(Cl)c2ncn(Cc3ccc(CCl)cc3)c2n1
- TGI (CCRF-CEM): > 100 µM
- CC50 (CCRF-CEM): > 100 µM
- LC50 (786-0): > 100 µM
- TGI (786-0): 93.3 µM
- GI50 (NCI-H522): 10.9 µM
- TGI (NCI-H522): 25.7 µM
- CC50 (NCI-H522): 63.1 µM
- TGI (ACHN): 25.1 µM
- CC50 (ACHN): 64.6 µM
- LC50 (MDA-MB-435): > 100 µM
- TGI (MDA-MB-435): 42.7 µM
- TGI (RXF 393): 7.24 µM
- CC50 (RXF 393): 35.5 µM
- LC50 (T47D): > 100 µM
- TGI (T47D): 39.8 µM
- growth at 100 µM (SF-268 [1]): 90%
- LC50 (concentration killing 50% of cells) (U-251): 44.7 µM
- TGI (U-251): 12 µM
- LC50 (MDA-MB-231): 91.2 µM
- TGI (MDA-MB-231): 34.7 µM
- TGI (COLO 205): 13.5 µM
- CC50 (COLO 205): 42.7 µM
- TGI (SF-268 [2]): 8.32 µM
- CC50 (SF-268 [2]): 38.9 µM
- TGI (MOLT-4): > 100 µM
- CC50 (MOLT-4): > 100 µM
- TGI (HCT-15): 19.9 µM
- CC50 (HCT-15): 67.6 µM
- growth at 100 µM (NCI-H460 [3]): 0%
- TGI (NCI-H322M): 42.7 µM
- CC50 (NCI-H322M): 87.1 µM
- LC50 (SK-OV-3): 64.5 µM
- TGI (SK-OV-3): 30.9 µM
- LC50 (50% lethal concentration) (BT-549): 69.2 µM
- TGI (BT-549): 24.6 µM
- TGI (HOP-92): > 100 µM
- CC50 (HOP-92): > 100 µM
- LC50 (concentration causing 50% net cell kill) (UACC-62): 53.7 µM
- TGI (UACC-62): 8.13 µM
- LC50 (concentration killing 50% of cells) (MCF7): > 100 µM
- TGI (MCF7): 17 µM
- TGI (NCI-H460 [4]): 9.95 µM
- CC50 (NCI-H460 [4]): 63.1 µM
- LC50 (concentration killing 50% of cells) (SK-MEL-28): > 100 µM
- TGI (SK-MEL-28): 44.7 µM
- LC50 (Hs-578T): > 100 µM
- TGI (Hs-578T): > 100 µM
- TGI (NCI-H226): 37.1 µM
- CC50 (NCI-H226): > 100 µM
- LC50 (50% lethal concentration) (SN12C): 60.3 µM
- TGI (SN12C): 26.9 µM
- LC50 (concentration causing 50% cell kill) (PC-3): 70.8 µM
- TGI (PC-3): 25.1 µM
- LC50 (concentration causing 50% net cell kill) (UO-31): 55 µM
- TGI (UO-31): 25.1 µM
- TGI (NCI-H23): 30.2 µM
- CC50 (NCI-H23): 77.6 µM
- LC50 (concentration killing 50% of cells) [5]: > 100 µM
- TGI [5]: 26.9 µM
- TGI (HOP-62): 27.5 µM
- CC50 (HOP-62): 91.2 µM
- TGI (KM12): 22.9 µM
- CC50 (KM12): 57.5 µM

SMILES: ClCc1ccccc1Cn1cnc2nc(Cl)nc(Cl)c21
- GI50 (CCRF-CEM): 0.1 µM
- TGI (CCRF-CEM): 0.3 µM
- CC50 (CCRF-CEM): 0.93 µM
- GI50 (786-0): 2.63 µM
- LC50 (786-0): 30.9 µM
- TGI (786-0): 7.07 µM
- GI50 (NCI-H522): 2.95 µM
- TGI (NCI-H522): 7.24 µM
- CC50 (NCI-H522): > 100 µM
- GI50 (ACHN): 0.35 µM
- TGI (ACHN): 1.25 µM
- CC50 (ACHN): 3.54 µM
- GI50 (MDA-MB-435): 16.6 µM
- LC50 (MDA-MB-435): 58.9 µM
- TGI (MDA-MB-435): 30.9 µM
- GI50 (RXF 393): 0.001 µM
- TGI (RXF 393): 1.9 µM
- CC50 (RXF 393): 6.45 µM
- GI50 (T47D): 0.58 µM
- LC50 (T47D): > 100 µM
- TGI (T47D): 5.24 µM
- growth at 100 µM (SF-268 [1]): 0%
- GI50 (U-251): 0.33 µM
- LC50 (concentration killing 50% of cells) (U-251): 3.63 µM
- TGI (U-251): 1.17 µM
- GI50 (MDA-MB-231): 0.3 µM
- LC50 (MDA-MB-231): 3.23 µM
- TGI (MDA-MB-231): 0.91 µM
- GI50 (COLO 205): 0.35 µM
- TGI (COLO 205): > 100 µM
- CC50 (COLO 205): > 100 µM
- GI50 (SF-268 [2]): 3.01 µM
- TGI (SF-268 [2]): 24.5 µM
- CC50 (SF-268 [2]): > 100 µM
- GI50 (MOLT-4): 1.34 µM
- TGI (MOLT-4): 3.23 µM
- CC50 (MOLT-4): 7.94 µM
- GI50 (HCT-15): 0.19 µM
- TGI (HCT-15): 0.43 µM
- CC50 (HCT-15): 0.95 µM
- growth at 100 µM (NCI-H460 [3]): 0%
- GI50 (NCI-H322M): 4.26 µM
- TGI (NCI-H322M): 14.5 µM
- CC50 (NCI-H322M): 39.8 µM
- GI50 (SK-OV-3): 5.88 µM
- LC50 (SK-OV-3): 56.2 µM
- TGI (SK-OV-3): 20.9 µM
- GI50 (BT-549): 1.34 µM
- LC50 (50% lethal concentration) (BT-549): 7.07 µM
- TGI (BT-549): 3.09 µM
- GI50 (HOP-92): 1.14 µM
- TGI (HOP-92): 2.81 µM
- CC50 (HOP-92): > 100 µM
- GI50 (UACC-62): 1.2 µM
- LC50 (concentration causing 50% net cell kill) (UACC-62): 6.76 µM
- TGI (UACC-62): 2.81 µM
- GI50 (MCF7): 1.04 µM
- LC50 (concentration killing 50% of cells) (MCF7): > 100 µM
- TGI (MCF7): 2.57 µM
- GI50 (NCI-H460 [4]): 2.39 µM
- TGI (NCI-H460 [4]): 5.88 µM
- CC50 (NCI-H460 [4]): > 100 µM
- GI50 (SK-MEL-28): 0.35 µM
- LC50 (concentration killing 50% of cells) (SK-MEL-28): > 100 µM
- TGI (SK-MEL-28): > 100 µM
- GI50 (Hs-578T): 0.67 µM
- LC50 (Hs-578T): > 100 µM
- TGI (Hs-578T): 2.57 µM
- GI50 (NCI-H226): 2.13 µM
- TGI (NCI-H226): 6.76 µM
- CC50 (NCI-H226): 28.2 µM
- GI50 (SN12C): 1.17 µM
- LC50 (50% lethal concentration) (SN12C): 5.62 µM
- TGI (SN12C): 2.57 µM
- GI50 (PC-3): 0.75 µM
- TGI (PC-3): 2.57 µM
- GI50 (UO-31): 1.73 µM
- GI50 (NCI-H23): 19.1 µM
- TGI (NCI-H23): 40.7 µM
- CC50 (NCI-H23): 87.1 µM
- GI50 [5]: 2.34 µM
- LC50 (concentration killing 50% of cells) [5]: > 100 µM
- TGI [5]: 5.01 µM
- GI50 (HOP-62): 2.69 µM
- TGI (HOP-62): 5.49 µM
- CC50 (HOP-62): 16.6 µM
- GI50 (KM12): 11.7 µM
- TGI (KM12): 25.7 µM
- CC50 (KM12): 56.2 µM
